What all share (assay): AK assay 384-well format, Prestwick library screening
One assay concerns E. coli. Format: cell-based, Escherichia coli. As to conditions: Escherichia coli, 3 h, 50 μM final drug concentration.
In another assay the test system is E. faecium. Format: cell-based, Enterococcus faecium. As to conditions: Enterococcus faecium, 3 h, 50 μM final drug concentration.
Assay [1] concerns A. baumannii strain 98-37-09. Type of assay: cell-based, Acinetobacter baumannii. Particulars: Acinetobacter baumannii, 983709, 3 h, 50 μM final drug concentration.
Another assay deals with E. cloacae. Type of assay: cell-based, Enterobacter cloacae. As to conditions: Enterobacter cloacae, 3 h, 50 μM final drug concentration.
For assay [2], the system named is S. aureus strain USA300-0114. Format: cell-based, Staphylococcus aureus. Particulars: Staphylococcus aureus, USA300, 3 h, 50 μM final drug concentration.
For a further assay, the system named is P. aeruginosa. Type of assay: cell-based, Pseudomonas aeruginosa. Particulars: Pseudomonas aeruginosa, 3 h, 50 μM final drug concentration.
The subject of another assay is K. pneumoniae. Format: cell-based, Klebsiella pneumoniae. Particulars: Klebsiella pneumoniae, 3 h, 50 μM final drug concentration.
Setting [3] is: 384-well format, cutoff for positive-scoring molecules 3-fold increase, read-out: AK-based Prestwick Library Screening Results, E. coli (increase in extracellular AK activity).
The mark [4] stands for this setting: 384-well format, cutoff for positive-scoring molecules 3-fold increase, read-out: AK-based Prestwick Library Screening Results, E. faecium (increase in extracellular AK activity).
The mark [5] stands for this setting: 384-well format, cutoff for positive-scoring molecules 3-fold increase, read-out: AK-based Prestwick Library Screening Results, A. baumannii (increase in extracellular AK activity).
Setting [6] is: 384-well format, cutoff for positive-scoring molecules 3-fold increase, read-out: AK-based Prestwick Library Screening Results, E. cloacae (increase in extracellular AK activity).
The mark [7] stands for this setting: 384-well format, cutoff for positive-scoring molecules 3-fold increase, read-out: AK-based Prestwick Library Screening Results, S. aureus (increase in extracellular AK activity).
Where [8] appears, read: 384-well format, cutoff for positive-scoring molecules 3-fold increase, read-out: AK-based Prestwick Library Screening Results, P. aeruginosa (increase in extracellular AK activity).
The mark [9] stands for this setting: 384-well format, cutoff for positive-scoring molecules 3-fold increase, read-out: AK-based Prestwick Library Screening Results, K. pneumoniae (increase in extracellular AK activity).
Where [10] appears, read: planktonic E. coli, cutoff for positive-scoring molecules 3-fold increase, read-out: AK-based Prestwick Library Screening Results, E. coli (increase in extracellular AK activity).
Where [11] appears, read: planktonic E. faecium, cutoff for positive-scoring molecules 3-fold increase, read-out: AK-based Prestwick Library Screening Results, E. faecium (increase in extracellular AK activity).
The mark [12] stands for this setting: planktonic A. baumannii, cutoff for positive-scoring molecules 3-fold increase, read-out: AK-based Prestwick Library Screening Results, A. baumannii (increase in extracellular AK activity).
Setting [13] is: planktonic E. cloacae, cutoff for positive-scoring molecules 3-fold increase, read-out: AK-based Prestwick Library Screening Results, E. cloacae (increase in extracellular AK activity).
Setting [14] is: planktonic S. aureus, cutoff for positive-scoring molecules 3-fold increase, read-out: AK-based Prestwick Library Screening Results, S. aureus (increase in extracellular AK activity).
The mark [15] stands for this setting: planktonic P. aeruginosa, cutoff for positive-scoring molecules 3-fold increase, read-out: AK-based Prestwick Library Screening Results, P. aeruginosa (increase in extracellular AK activity).
[16] abbreviates: planktonic K. pneumoniae, cutoff for positive-scoring molecules 3-fold increase, read-out: AK-based Prestwick Library Screening Results, K. pneumoniae (increase in extracellular AK activity).
Setting [17] is: planktonic E. coli, 384-well, cutoff for positive-scoring molecules 3-fold increase, read-out: AK-based Prestwick Library Screening Results: E. coli (increase in extracellular AK activity).
The mark [18] stands for this setting: planktonic E. faecium, 384-well, cutoff for positive-scoring molecules 3-fold increase, read-out: AK-based Prestwick Library Screening Results: E. faecium (increase in extracellular AK activity).
Where [19] appears, read: planktonic A. baumannii, 384-well, cutoff for positive-scoring molecules 3-fold increase, read-out: AK-based Prestwick Library Screening Results: A. baumannii (increase in extracellular AK activity).
[20] abbreviates: planktonic E. cloacae, 384-well, cutoff for positive-scoring molecules 3-fold increase, read-out: AK-based Prestwick Library Screening Results: E. cloacae (increase in extracellular AK activity).
Setting [21] is: planktonic S. aureus, 384-well, cutoff for positive-scoring molecules 3-fold increase, read-out: AK-based Prestwick Library Screening Results: S. aureus (increase in extracellular AK activity).
[22] abbreviates: planktonic P. aeruginosa, 384-well, cutoff for positive-scoring molecules 3-fold increase, read-out: AK-based Prestwick Library Screening Results: P. aeruginosa (increase in extracellular AK activity).
The mark [23] stands for this setting: planktonic K. pneumoniae, 384-well, cutoff for positive-scoring molecules 3-fold increase, read-out: AK-based Prestwick Library Screening Results: K. pneumoniae (increase in extracellular AK activity).

These results are taken from US10004701B2, “Methods and compositions for treating infection” (UNIVERSITY OF ROCHESTER, priority 2012, dated 2018).

Structures can show the parent of a compound that is named as a salt. Where two headings read alike, the source gives them in different places.

Regarding `Nc1ccc(S(=O)(=O)Nc2ccnn2-c2ccccc2)cc1` [Sulfaphenazole], the fold induction at 50 µM in the assay with E. coli (setting [3]) was 0.8; with E. faecium (setting [4]), 0.8; in assay [1] (setting [5]), 1.4; in the assay with E. cloacae (setting [6]) it was 0.8; in assay [2] (setting [7]), 0.8; with P. aeruginosa (setting [8]), 0.8. In addition, the fold induction at 50 µM in the assay with K. pneumoniae (setting [9]) is 0.7.
`Nc1ccc(S(=O)(=O)Nc2ccccn2)cc1` [Sulfapyridine]: the fold induction at 50 µM is 1.2 in the assay on E. coli (planktonic, […], read-out: AK-based Prestwick Library Screening Results, E. coli (fold increase in extracellular AK activity)); 1 in the assay on E. faecium (planktonic, […], read-out: AK-based Prestwick Library Screening Results, E. faecium (fold increase in extracellular AK activity)); 2.2 in assay [1] (planktonic, […], read-out: AK-based Prestwick Library Screening Results, A. baumannii (fold increase in extracellular AK activity)); 1.6 with E. cloacae (planktonic, […], read-out: AK-based Prestwick Library Screening Results, E. cloacae (fold increase in extracellular AK activity)); 1.4 in assay [2] (planktonic, […], read-out: AK-based Prestwick Library Screening Results, S. aureus (fold increase in extracellular AK activity)); 1.1 in the assay on P. aeruginosa (planktonic, […], read-out: AK-based Prestwick Library Screening Results, P. aeruginosa (fold increase in extracellular AK activity)). Also, the fold induction at 50 µM in the assay with K. pneumoniae (planktonic, […], read-out: AK-based Prestwick Library Screening Results, K. pneumoniae (fold increase in extracellular AK activity)) came out at 0.9.
Take `Nc1ccc(S(=O)(=O)Nc2cnc3ccccc3n2)cc1` [Sulfaquinoxaline sodium salt]: the fold induction at 50 µM in the assay on E. coli (planktonic, cutoff for positive-scoring molecules 3-fold increase, read-out: AK-based Prestwick Library Screening Results, E. coli (fold increase in extracellular AK activity)) is 0.6; with E. faecium (planktonic, cutoff for positive-scoring molecules 3-fold increase, read-out: AK-based Prestwick Library Screening Results, E. faecium (fold increase in extracellular AK activity)), 0.9; in assay [1] (planktonic, cutoff for positive-scoring molecules 3-fold increase, read-out: AK-based Prestwick Library Screening Results, A. baumannii (fold increase in extracellular AK activity)) it was 1; in the assay with E. cloacae (planktonic, cutoff for positive-scoring molecules 3-fold increase, read-out: AK-based Prestwick Library Screening Results, E. cloacae (fold increase in extracellular AK activity)), 0.8; in assay [2] (planktonic, cutoff for positive-scoring molecules 3-fold increase, read-out: AK-based Prestwick Library Screening Results, S. aureus (fold increase in extracellular AK activity)) it was 0.7; in the assay with P. aeruginosa (planktonic, cutoff for positive-scoring molecules 3-fold increase, read-out: AK-based Prestwick Library Screening Results, P. aeruginosa (fold increase in extracellular AK activity)), 0.6. Moreover, the fold induction at 50 µM with K. pneumoniae (planktonic, cutoff for positive-scoring molecules 3-fold increase, read-out: AK-based Prestwick Library Screening Results, K. pneumoniae (fold increase in extracellular AK activity)) was 0.6.
As to `O=C(O)c1cc(/N=N/c2ccc(S(=O)(=O)Nc3ccccn3)cc2)ccc1O` [Sulfasalazine], the fold induction at 50 µM with E. coli (setting [10]) was 0.8; with E. faecium (setting [11]) it was 0.9; in assay [1] (setting [12]) it was 1.1; in the assay on E. cloacae (setting [13]), 1.1; in assay [2] (setting [14]) it was 0.8; in the assay with P. aeruginosa (setting [15]) it was 0.8. Besides, in the assay on K. pneumoniae (setting [16]), the fold induction at 50 µM was 0.7.
Turning to `Nc1ccc(S(=O)(=O)Nc2nccs2)cc1` [Sulfathiazole], the fold induction at 50 µM in the assay with E. coli (setting [3]) turned out to be 0.7; in the assay with E. faecium (setting [4]) it was 0.9; in assay [1] (setting [5]), 1; in the assay with E. cloacae (setting [6]), 0.7; in assay [2] (setting [7]), 0.6; in the assay with P. aeruginosa (setting [8]), 0.6. The fold induction at 50 µM in the assay on K. pneumoniae (setting [9]) was determined as 0.6.
For `O=C1C(CC[S+]([O-])c2ccccc2)C(=O)N(c2ccccc2)N1c1ccccc1` (stereo not drawn) [Sulfinpyrazone], the fold induction at 50 µM with E. coli (setting [17]) is 1.3; with E. faecium (setting [18]) it was 1.1; in assay [1] (setting [19]) it was 1.2; with E. cloacae (setting [20]), 1.2; in assay [2] (setting [21]) it was 3.5; in the assay with P. aeruginosa (setting [22]), 1. The fold induction at 50 µM in the assay with K. pneumoniae (setting [23]) was determined as 1.
In the case of `Cc1noc(NS(=O)(=O)c2ccc(N)cc2)c1C` [Sulfisoxazole], the fold induction at 50 µM with E. coli (setting [10]) was determined as 0.7; in the assay with E. faecium (setting [11]), 0.9; in assay [1] (setting [12]), 1; in the assay with E. cloacae (setting [13]), 0.7; in assay [2] (setting [14]), 0.5; in the assay with P. aeruginosa (setting [15]), 0.6. Further, the fold induction at 50 µM with K. pneumoniae (setting [16]) was 0.5.
As to `CC1=C(CC(=O)O)c2cc(F)ccc2/C1=C\c1ccc([S+](C)[O-])cc1` (stereo not drawn) [Sulindac], the fold induction at 50 µM in the assay on E. coli (setting [17]) was 1.1; with E. faecium (setting [18]) it was 0.9; in assay [1] (setting [19]), 1.1; in the assay with E. cloacae (setting [20]) it was 1.5; in assay [2] (setting [21]), 0.8; with P. aeruginosa (setting [22]) it was 0.8. The fold induction at 50 µM with K. pneumoniae (setting [23]) came out at 1.
For `COc1cc([S+](C)[O-])ccc1-c1nc2ncccc2[nH]1` (stereo not drawn) [Sulmazole], the fold induction at 50 µM with E. coli (planktonic, cutoff for positive 3-fold increase, read-out: AK-based Prestwick Library Screening Results, E. coli (fold increase in extracellular AK activity)) amounted to 0.3; with E. faecium (planktonic, cutoff for positive 3-fold increase, read-out: AK-based Prestwick Library Screening Results, E. faecium (fold increase in extracellular AK activity)) it was 0.9; in assay [1] (planktonic, cutoff for positive 3-fold increase, read-out: AK-based Prestwick Library Screening Results, A. baumannii (fold increase in extracellular AK activity)) it was 0.3; in the assay with E. cloacae (planktonic, cutoff for positive 3-fold increase, read-out: AK-based Prestwick Library Screening Results, E. cloacae (fold increase in extracellular AK activity)) it was 0.3; in assay [2] (planktonic, cutoff for positive 3-fold increase, read-out: AK-based Prestwick Library Screening Results, S. aureus (fold increase in extracellular AK activity)) it was 0.4; with P. aeruginosa (planktonic, cutoff for positive 3-fold increase, read-out: AK-based Prestwick Library Screening Results, P. aeruginosa (fold increase in extracellular AK activity)), 0.3. Also, the fold induction at 50 µM in the assay with K. pneumoniae (planktonic, cutoff for positive 3-fold increase, read-out: AK-based Prestwick Library Screening Results, K. pneumoniae (fold increase in extracellular AK activity)) worked out at 0.5.
